Key:
[1] = biological target: full-length RORγt in Jurkat cells (Homo sapiens (Human), UniProt P51449); test: RORγt 5xRORE Assay in Jurkat Cells (Assay 2); assay type: cell-based; details: Nanoluc luciferase reporter, 16-18 hrs, Table 9, read-out: RORγt5X IC50 Range*
Method: [formula] RORγt 5xRORE Assay in Jurkat Cells (Assay 2)
Compounds of the present invention were tested for RORγ inverse agonist activity in a cell-based, transcriptional activity assay. Secreted Nanoluc® luciferase was used as a reporter for transcriptional activity of the full-length RORγt in Jurkat cells (ATCC, Cat. # TIB-152). A reporter plasmid was constructed by inserting 5 repeats of the ROR Response Element (RORE) […] (SEQ ID NO:1) into a commercially available promoterless plasmid pNL1.3[secNluc] (Promega, Cat. # N1021) using KpnI and HindIII restriction sites. The expression plasmid for RORγt was purchased (Geneocopoeia, Cat. # EX-T6988-M02). Jurkat cells (30 million cells) were transfected with 11 μg of EX-T6988-MO2 and 26 μg of the reporter plasmid in OptiMEM® media using Lipofectamine® LTX and Plus™ reagents (Life Technologies, Cat. #15338-100). After 5-6 h of incubation at 37° C./5% CO2, the cells were collected, resuspended in phenol-red free RPMI media containing 10% (v/v) delipidated FBS (Hyclone, Cat. # SH30855.03) and dispensed into 96-well clear bottom tissue culture plates (CoStar, Cat. #3603), at 80,000 cells per well. Tested compounds were added to the cells in the same media (final concentration of DMSO was 0.1% (v/v)), and the plates were incubated at 37° C./5% CO2 for 16-18 hrs. Luciferase activity in the conditioned supernatants was determined with NanoGlo® assay reagents (Promega, Cat. # N1130).

[2] = biological target: recombinant RORγ Ligand Binding Domain (LBD) protein (Homo sapiens (Human), UniProt P51449); test: Radio-Ligand RORγ Binding Assay (Assay 1); details: competition with 25-hydroxy [26,27-3H]-cholesterol, SPA; Table 9; read-out: RORγ Binding Ki Range*
Method: Radio-Ligand RORγ Binding Assay (Assay 1)
Compounds of the present invention were tested for ability to bind to RORγ in a cell-free competition assay with commercially available radio-ligand (RL), 25-hydroxy [26,27-^3H]— cholesterol (PerkinElmer, Cat. # NET674250UC), for a ligand binding site on a recombinant RORγ Ligand Binding Domain (LBD) protein expressed as a 6×His-Glutathione-S-Transferase (GST) fusion (“6×His” disclosed as SEQ ID NO: 2). The assay was performed in 96-well SPA plates (PerkinElmer, Cat. #1450-401) in 50 mM HEPES buffer, pH 7.4, containing 150 mM NaCl, 5 mM MgCl2, 10% (v/v) glycerol, 2 mM CHAPS, 0.5 mM β-octylglucopyranoside and 5 mM DTT. Tested compounds were dissolved in DMSO, and semi-log (3.162×) serial dilutions of the compounds were prepared in the same solvent. Two μL of the DMSO solutions were mixed with 28 μL of 8.6 nM 25-hydroxy [26,27-^3H]— cholesterol and 50 μL of 24 nM RORγ LBD. The plate was shaken at 700 rpm for 20 min and incubated for 10 min at rt, after which 40 μL of poly-Lys YSi SPA beads (PerkinElmer, Cat. # RPNQ0010) were added to achieve 50 μg of the beads per well. The plate was incubated on an orbital shaker for 20 min and then for 10 min without agitation at rt. SPA signal for tritium beta radiation was registered on PerkinElmer Microbeta plate reader. Percent inhibition values were calculated based on the high signal obtained with DMSO control and the low signal observed with 10 μM standard RORγ inverse agonist T0901317 (SigmaAldrich, Cat. # T2320). The percent inhibition vs. concentration data were fit into a four-parameter model, and […] values were calculated from the fit as the concentrations corresponding to the inflection points on the dose-response curves. Inhibitory constants (Ki) were calculated using the following equation, where [RL] is the concentration in the assay and KD is a dissociation constant of 25-hydroxy [26,27-^3H]-cholesterol: […]

Chain of full-length RORγt in Jurkat cells (P51449 other isoform, or with tags, fused parts or gaps): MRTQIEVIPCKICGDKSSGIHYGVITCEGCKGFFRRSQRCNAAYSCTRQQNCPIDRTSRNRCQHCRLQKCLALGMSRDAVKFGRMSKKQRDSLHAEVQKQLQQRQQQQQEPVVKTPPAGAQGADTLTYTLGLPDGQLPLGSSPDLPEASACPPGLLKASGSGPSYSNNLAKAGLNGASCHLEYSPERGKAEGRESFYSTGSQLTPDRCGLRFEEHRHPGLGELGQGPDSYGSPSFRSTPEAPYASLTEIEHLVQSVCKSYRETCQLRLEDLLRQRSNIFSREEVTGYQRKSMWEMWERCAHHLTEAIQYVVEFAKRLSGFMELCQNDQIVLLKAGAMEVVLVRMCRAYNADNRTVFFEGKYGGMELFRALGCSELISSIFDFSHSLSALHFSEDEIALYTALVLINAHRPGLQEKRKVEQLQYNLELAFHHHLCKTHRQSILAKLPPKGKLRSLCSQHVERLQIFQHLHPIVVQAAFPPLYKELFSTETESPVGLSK
Chain of recombinant RORγ Ligand Binding Domain (LBD) protein (P51449 269-508): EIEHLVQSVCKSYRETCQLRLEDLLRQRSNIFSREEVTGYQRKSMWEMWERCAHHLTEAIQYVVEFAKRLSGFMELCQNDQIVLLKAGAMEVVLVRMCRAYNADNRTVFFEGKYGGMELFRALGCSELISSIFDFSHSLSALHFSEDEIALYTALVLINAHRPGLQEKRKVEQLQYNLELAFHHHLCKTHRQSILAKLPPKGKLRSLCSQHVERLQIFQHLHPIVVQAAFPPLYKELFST

Row | Structure (SMILES) | IC50 [1] [nM] | Ki [2] [nM]
1 | CCS(=O)(=O)c1cnc(CC(=O)Nc2nc3c(s2)CN(Cc2ccc(-c4nnn(C)n4)cc2)[C@H]3C(C)C)nc1 | 100 to 1000 | < 100
2 | CC[C@@]1(C)c2nc(NC(=O)Cc3ccc(S(=O)(=O)CC)cc3)sc2CN1Cc1ccc(C#N)cc1 | 100 to 1000 | < 100
3 | CC[C@@]1(C)c2nc(NC(=O)Cc3ccc(S(=O)(=O)CC)cc3)sc2CN1Cc1ccc(Cl)cc1 | < 100 | < 100
4 | CCS(=O)(=O)c1ccc(CC(=O)Nc2nc3c(s2)CN(Cc2ccc(OC(F)(F)F)c(Cl)c2)[C@H]3C(C)C)nc1 | < 100 | < 100
5 | CCS(=O)(=O)c1ccc(CC(=O)Nc2nc3c(s2)CN(c2ncc(C(C)=O)c(C(F)(F)F)n2)[C@H]3C(C)C)cc1 | > 1000 | < 100
6 | CC(C)[C@H]1c2nc(NC(=O)Cc3ccc(C#N)cc3)sc2CN1Cc1ccc(C#N)c(Cl)c1 | 100 to 1000 | < 100
7 | CCS(=O)(=O)c1cnc(CC(=O)Nc2nc3c(s2)CN(Cc2ccc(C(F)(F)F)cc2)[C@H]3C(C)C)nc1 | 100 to 1000 | < 100
8 | Cc1nc(C(F)(F)F)ccc1CN1Cc2sc(NC(=O)Cc3ccc(S(C)(=O)=O)cc3F)nc2[C@@H]1C(C)C | < 100 | < 100
9 | CC[C@H]1c2nc(NC(=O)Cc3ccc(CO)cc3)sc2CN1Cc1ccc(Cl)cc1 | 100 to 1000 | < 100
10 | CCS(=O)(=O)c1ccc(CNC(=O)c2nc3c(s2)CN(CC2CN(CC(F)(F)F)CCO2)[C@H]3C(C)C)cc1 (stereo partly shown) | > 1000 | < 100
11 | CCS(=O)(=O)c1ccc(CNC(=O)c2nc3c(s2)CN(CC2CN(C(=O)OC(C)(C)C)CCO2)[C@H]3C(C)C)cc1 (stereo partly shown) | < 100 | < 100
12 | CC(C)[C@H]1c2nc(NC(=O)Cc3ccc(S(C)(=O)=O)cc3)sc2CN1[C@H](C)c1ccc(C#N)cc1Cl | 100 to 1000 | < 100
13 | CC[C@H]1c2nc(NC(=O)Cc3ccc(S(C)(=O)=O)cc3)sc2CN1Cc1ccc2nn[nH]c2c1 | 100 to 1000 | < 100
14 | CCS(=O)(=O)c1ccc(CC(=O)Nc2nc3c(s2)CN(c2ncc(C(F)(F)F)cn2)[C@H]3C(C)C)cc1 | > 1000 | < 100
15 | CCOC(=O)c1cnc(N2Cc3sc(NC(=O)Cc4ccc(S(=O)(=O)CC)cc4)nc3[C@@H]2C(C)C)nc1C(F)(F)F | > 1000 | < 100
16 | CCS(=O)(=O)c1ccc(CC(=O)Nc2nc3c(s2)CN(c2nc(C)cc(C(F)(F)F)n2)[C@H]3C(C)C)cc1 | > 1000 | < 100

Row | Structure (SMILES) | IC50 [1] [nM] | Ki [2] [nM]
17 | CCS(=O)(=O)c1ccc(CC(=O)Nc2nc3c(s2)CN(c2nccc(C(F)(F)F)n2)[C@H]3C(C)C)cc1 | > 1000 | < 100
18 | CCS(=O)(=O)c1ccc(CC(=O)Nc2nc3c(s2)CN(Cc2ccc(C(F)(F)F)cn2)[C@H]3C(C)C)nc1 | 100 to 1000 | < 100
19 | CCS(=O)(=O)c1ccc(CC(=O)Sc2nc3c(s2)CN(Cc2ccc(Cl)cc2)C3(C)C)cc1 | 100 to 1000 | < 100
20 | CCS(=O)(=O)c1ccc(CC(=O)Nc2nc3c(s2)CN(c2nccc(C(F)(F)F)n2)C3(C)C)cc1 | > 1000 | < 100
21 | CC(C)[C@H]1c2nc(C(=O)NCc3ccc(S(C)(=O)=O)cc3)sc2CN1Cc1ccc(F)cc1 | > 1000 | < 100
22 | CC(C)[C@H]1c2nc(C(=O)NCc3ccc(S(C)(=O)=O)cc3)sc2CN1Cc1ccc(C#N)c(F)c1 | 100 to 1000 | < 100
23 | CC(C)[C@H]1c2nc(C(=O)NCc3ccc(S(C)(=O)=O)cc3)sc2CN1Cc1ccc(C(F)(F)F)cc1 | < 100 | < 100
24 | CC(C)[C@H]1c2nc(C(=O)NCc3ccc(S(C)(=O)=O)cc3)sc2CN1Cc1ccc(C#N)cc1F | 100 to 1000 | < 100
25 | CC1(C)c2nc(NC(=O)Cc3ccc(S(C)(=O)=O)cc3)sc2CN1c1nccc(C(F)(F)F)n1 | > 1000 | 100 to 1000
26 | CC(C)[C@H]1c2nc(NC(=O)Cc3ccc(S(C)(=O)=O)cc3)sc2CN1Cc1cnc(C(F)(F)F)nc1 | < 100 | < 100
27 | CC(C)[C@H]1c2nc(NC(=O)Cc3ccc(S(C)(=O)=O)cc3)sc2CN1[C@H](C)c1cnc(Cl)cc1F | 100 to 1000 | < 100
28 | CC[C@H]1c2nc(NC(=O)Cc3ccc(S(=O)(=O)CC)cc3)sc2CN1[C@@H](C)c1ncc(Cl)cc1F | 100 to 1000 | < 100
29 | CC[C@H]1c2nc(NC(=O)Cc3ccc(S(=O)(=O)CC)cc3)sc2CN1[C@@H](C)Cc1ccccc1 | > 1000 | < 100
30 | CC[C@H]1c2nc(NC(=O)Cc3ccc(S(=O)(=O)CC)cc3)sc2CN1Cc1ncc(Cl)cn1 | < 100 | 100 to 1000
31 | CC[C@H](C)C1c2nc(C(=O)NCc3ccc(S(C)(=O)=O)cc3)sc2CN1Cc1ccc(OC(F)F)cc1 (stereo partly shown) | 100 to 1000 | < 100

Now from value to compound:

Row | IC50 [1] [nM] | Ki [2] [nM] | Structure (SMILES)
32 | < 100 | < 100 | CCS(=O)(=O)c1ccc(CC(=O)Nc2nc3c(s2)CN(Cc2ccc(-c4ccc(=O)n(C)c4)cc2)[C@H]3C(C)C)nc1
33 | < 100 | < 100 | CCS(=O)(=O)c1ccc(CC(=O)Nc2nc3c(s2)CN(Cc2ccc(Cl)cc2)[C@@]3(C)C(C)C)cc1
34 | 100 to 1000 | < 100 | CCS(=O)(=O)c1cnc(CC(=O)Nc2nc3c(s2)CN(Cc2ccc(C#N)cc2)[C@H]3C(C)C)nc1
35 | 100 to 1000 | < 100 | CC(C)[C@H]1c2nc(NC(=O)Cc3ccc(C(N)=O)cc3)sc2CN1Cc1ccc(Cl)cc1
36 | > 1000 | < 100 | CCS(=O)(=O)c1ccc(CC(=O)Nc2nc3c(s2)CN(Cc2ccc(N)nc2)[C@H]3C(C)C)cc1
37 | 100 to 1000 | < 100 | CCS(=O)(=O)c1ccc(CC(=O)Nc2nc3c(s2)CN(Cc2cnc(C)nc2)[C@H]3C(C)C)cc1
38 | 100 to 1000 | < 100 | CC(C)[C@H]1c2nc(NC(=O)Cc3ccc(C(=O)O)cc3)sc2CN1Cc1ccc(Cl)cc1
39 | < 100 | < 100 | CC(C)[C@H]1c2nc(NC(=O)Cc3ccc(S(C)(=O)=O)cc3)sc2CN1Cc1ccc(-c2nnnn2C)cc1
40 | < 100 | < 100 | Cc1nnc(-c2ccc(CN3Cc4sc(NC(=O)Cc5ccc(S(C)(=O)=O)cc5)nc4[C@@H]3C(C)C)cc2)o1
41 | 100 to 1000 | < 100 | CCS(=O)(=O)c1cnc(CC(=O)Nc2nc3c(s2)CN(Cc2ccc(Cl)cc2)[C@H]3C(C)C)nc1
42 | > 1000 | < 100 | CCS(=O)(=O)c1ccc(CC(=O)Nc2nc3c(s2)CN(Cc2ccncc2)[C@H]3C(C)C)cc1
43 | 100 to 1000 | < 100 | CCS(=O)(=O)c1ccc(CC(=O)Nc2nc3c(s2)CN(Cc2ccc(CO)cc2)[C@H]3C(C)C)cc1
44 | 100 to 1000 | < 100 | CC(C)[C@H]1c2nc(NC(=O)Cc3ccc(C#N)cc3)sc2CN1Cc1ccc(C#N)cc1
45 | > 1000 | < 100 | CCS(=O)(=O)c1ccc(CC(=O)Nc2nc3c(s2)CN(Cc2ccc4c(c2)CCO4)[C@H]3C(C)C)cc1
46 | > 1000 | < 100 | CCS(=O)(=O)c1ccc(CC(=O)Nc2nc3c(s2)CN([C@H](C)Cc2ccccc2)[C@H]3C(C)C)cc1
47 | 100 to 1000 | < 100 | CCS(=O)(=O)c1ccc(CC(=O)Nc2nc3c(s2)CN([C@@H](C)Cc2ccc(Cl)cc2)[C@H]3C(C)C)cc1
48 | < 100 | < 100 | CCS(=O)(=O)c1ccc(CC(=O)Nc2nc3c(s2)CN(Cc2ccc(C(N)=O)cc2)[C@H]3C(C)C)cc1
49 | 100 to 1000 | < 100 | CCS(=O)(=O)c1ccc(CC(=O)Nc2nc3c(s2)CN(Cc2ccc(C(=O)O)cc2)[C@H]3C(C)C)cc1
50 | > 1000 | 100 to 1000 | CCS(=O)(=O)c1ccc(CC(=O)Nc2nc3c(s2)CN(Cc2ccn(C)c(=O)c2)[C@H]3C(C)C)cc1

— patent US9868748B2, “Thiazolopyrrolidine inhibitors of ROR- γ” (Vitae Pharmaceuticals, Inc., priority 2013, dated 2018)
